{
  "source": "paper PMC8011197",
  "about": "“A polo-like kinase modulates cytokinesis and flagella biogenesis in Giardia lamblia” (Parasites & Vectors, 2021)",
  "assay_type_in_all_cases": "cell-based",
  "key": {"[1]": {"tested_on": "Giardia lamblia trophozoites", "test": "Nuclear phenotype (number, position, condensation of nuclei) of Giemsa-stained cells", "settings": "for Percentage of cells, 1N / Percentage of cells, 2N, abnormal / Percentage of cells, 2N, normal / Percentage of cells, 3N / Percentage of cells, 4N / Percentage of cells, >4N: 5 µM GW", "method": "For the microscopic observation of cells, the cells were attached to slides, air-dried and fixed with 100% methanol for 10 min, following which they were stained with 10% Giemsa solution for 40 min and washed with distilled water. After mounting with dibutyl phthalate xylene (Sigma-Aldrich, St. Louis, MO, USA), the slides were observed under an Axiovert 200 microscope (Carl Zeiss AG, Oberkochen, Germany). For each condition, at least 300 cells were examined to determine the number and position of the nuclei. Among cells with two nuclei in normal positions, the number of cells showing nuclei condensation was also recorded. Data are presented as the mean ± standard deviation (SD) of three independent experiments. […]"}, "[2]": {"tested_on": "Giardia lamblia trophozoites", "test": "Growth inhibition of Giardia trophozoites, hemocytometer count after 24 h", "settings": "Giardia duodenalis, GW 5–15 μM, 2 × 10^4 cells/ml, read-out: IC50, inhibition of growth of G. lamblia", "method": "After treatment for 24 h, the number of parasites per milliliter was determined using a hemocytometer. Giardia trophozoites treated with 0.3% dimethyl sulfoxide (DMSO) were used as controls."}, "[3]": {"tested_on": "Giardia lamblia trophozoites", "test": "Flagella length of Giemsa-stained cells (DIC images, Fiji/ImageJ)", "settings": "5 µM GW", "description": "To measure flagella length, we observed Giemsa-stained cells under an Axiovert 200 microscope and analyzed their differential interference contrast (DIC) images using Fiji, an open-source platform for biological-image analysis. Each of four types of flagella were divided into cytoplasmic and membrane-bound categories and then measured using the line Freehand Tracing 0mode in ImageJ software (http://imagej.nih.gov/ij/). […] Data are presented as the mean ± SD of three independent experiments.\n(§1) Expression of GlPLK was knocked down using a morpholino, as described previously. A specific morpholino for GlPLK was designed by Gene Tools (Philomath, OR, USA) (see Table 1 for sequences). Nonspecific oligomers were used as a control morpholino (Table 1). Cells (5 × 10^6 in 0.3 ml medium) were treated with the lyophilized morpholino at a final concentration of 100 nM. After electroporation, the cells were grown for various lengths of time, ranging from 12 to 48 h, and analyzed for GlPLK inhibition by western blotting using anti-HA and anti-GlPLK antibodies. The cells at 18 h post-transfection were analyzed for their nuclear phenotypes, including the number and position of nuclei and condensation and flagella length, as described above. In addition, cells transfected with control or anti-glplk morpholino were harvested at 6 or 18 h, and then evaluated with respect to their DNA content by flow cytometry followed by analysis using FlowJo software (FlowJo Llc). Transfection was performed at least five times, and the data presented were derived from three independent knockdown experiments."}, "[4]": {"tested_on": "Giardia lamblia trophozoites", "test": "DNA content / cell cycle phase by flow cytometry (PI)", "method": "Both the GW-treated and control G. lamblia cells were analyzed for their DNA content using flow cytometry. Briefly, the harvested cells were resuspended in 50 μl TYI-S-33 culture medium and treated with 150 μl of a cell fixative (1% Triton X-100, 40 mM citric acid, 20 mM dibasic sodium phosphate, 200 mM sucrose; pH 3.0) at room temperature for 5 min. The samples were diluted with 350 μl of diluent buffer [125 mM MgCl2 in phosphate-buffered saline (PBS: 137 mM NaCl, 2.7 mM KCl, 10.1 mM Na2HPO4 and 2 mM KH2PO4, pH 7.4)] and then stored at 4 °C until use. Fixed cells were treated with 2.5 μg RNase A (Sigma-Aldrich) and 10 μg/ml propidium iodide (PI; Sigma-Aldrich) for 30 min at 37 °C. […] Along representative histograms, averages of three independent experiments were presented in bar graphs.\nas §1, with “Transfection was performed at least five times, and the data presented were derived from three independent knockdown experiments.” left out\nThese cells were then analyzed by flow cytometry to determine the ploidy of their DNA. Intracellular levels of GlPLK protein in the DMSO-treated, nocodazole-treated and nocodazole/aphidicolin-treated Giardia cells were determined by western blotting. The intracellular levels of glplk transcripts were also measured in these cells."}},
  "data": [
    {"smiles": "COc1cc2ncn(-c3cc(OCc4ccccc4C(F)(F)F)c(C(N)=O)s3)c2cc1OC", "note": "[GW, GW843682X]", "values": [
      {"measurement": "Percentage of cells, 1N", "setting": "[1]; 3 h", "value": "0.4±0.1", "unit": "%"},
      {"measurement": "Percentage of cells, 2N, abnormal", "setting": "[1]; 3 h", "value": "0.7±0.3", "unit": "%"},
      {"measurement": "Percentage of cells, 2N, normal", "setting": "[1]; 3 h", "value": "97.2±0.8", "unit": "%"},
      {"measurement": "Percentage of cells, 3N", "setting": "[1]; 3 h", "value": "0.2±0.1", "unit": "%"},
      {"measurement": "Percentage of cells, 4N", "setting": "[1]; 3 h", "value": "0.7±0.2", "unit": "%"},
      {"measurement": "Percentage of cells, >4N", "setting": "[1]; 3 h", "value": "0.8±0.3", "unit": "%"},
      {"measurement": "Percentage of cells, 1N", "setting": "[1]; 6 h", "value": "0.3±0.2", "unit": "%"},
      {"measurement": "Percentage of cells, 2N, abnormal", "setting": "[1]; 6 h", "value": "0.8±0.3", "unit": "%"},
      {"measurement": "Percentage of cells, 2N, normal", "setting": "[1]; 6 h", "value": "96.9±0.7", "unit": "%"},
      {"measurement": "Percentage of cells, 3N", "setting": "[1]; 6 h", "value": "0.3±0.1", "unit": "%"},
      {"measurement": "Percentage of cells, 4N", "setting": "[1]; 6 h", "value": "0.8±0.2", "unit": "%"},
      {"measurement": "Percentage of cells, >4N", "setting": "[1]; 6 h", "value": "0.9±0.4", "unit": "%"},
      {"measurement": "Percentage of cells with condensed nuclei", "setting": "[1]; 5 μM GW, 6 h, compared to DMSO-treated cells", "value": "significantly increased"},
      {"measurement": "Percentage of cells, 1N", "setting": "[1]; 9 h", "value": "1.2±0.1", "unit": "%"},
      {"measurement": "Percentage of cells, 2N, abnormal", "setting": "[1]; 9 h", "value": "1.3±0.3", "unit": "%"},
      {"measurement": "Percentage of cells, 2N, normal", "setting": "[1]; 9 h", "value": "91.7±0.1", "unit": "%"},
      {"measurement": "Percentage of cells, 3N", "setting": "[1]; 9 h", "value": "1.3±0.4", "unit": "%"},
      {"measurement": "Percentage of cells, 4N", "setting": "[1]; 9 h", "value": "3.3±0.4", "unit": "%"},
      {"measurement": "Percentage of cells, >4N", "setting": "[1]; 9 h", "value": "1.7±0.3", "unit": "%"},
      {"measurement": "Percentage of cells, 1N", "setting": "[1]; 12 h", "value": "1.2±0.1", "unit": "%"},
      {"measurement": "Percentage of cells, 2N, abnormal", "setting": "[1]; 12 h", "value": "1.4±0.6", "unit": "%"},
      {"measurement": "Percentage of cells, 2N, normal", "setting": "[1]; 12 h", "value": "91.0±1.4", "unit": "%"},
      {"measurement": "Percentage of cells, 3N", "setting": "[1]; 12 h", "value": "1.5±0.4", "unit": "%"},
      {"measurement": "Percentage of cells, 4N", "setting": "[1]; 12 h", "value": "3.1±0.9", "unit": "%"},
      {"measurement": "Percentage of cells, >4N", "setting": "[1]; 12 h", "value": "1.9±0.8", "unit": "%"},
      {"measurement": "Percentage of cells, 1N", "setting": "[1]; 15 h", "value": "1.1±0.2", "unit": "%"},
      {"measurement": "Percentage of cells, 2N, abnormal", "setting": "[1]; 15 h", "value": "1.6±0.5", "unit": "%"},
      {"measurement": "Percentage of cells, 2N, normal", "setting": "[1]; 15 h", "value": "86.1±1.4", "unit": "%"},
      {"measurement": "Percentage of cells, 3N", "setting": "[1]; 15 h", "value": "1.5±0.3", "unit": "%"},
      {"measurement": "Percentage of cells, 4N", "setting": "[1]; 15 h", "value": "6.7±0.5", "unit": "%"},
      {"measurement": "Percentage of cells, >4N", "setting": "[1]; 15 h", "value": "3.1±0.6", "unit": "%"},
      {"measurement": "Percentage of cells, 1N", "setting": "[1]; 18 h", "value": "0.9±0.3", "unit": "%"},
      {"measurement": "Percentage of cells, 2N, abnormal", "setting": "[1]; 18 h", "value": "0.9±0.4", "unit": "%"},
      {"measurement": "Percentage of cells, 2N, normal", "setting": "[1]; 18 h", "value": "88.5±1.2", "unit": "%"},
      {"measurement": "Percentage of cells, 3N", "setting": "[1]; 18 h", "value": "1.6±0.4", "unit": "%"},
      {"measurement": "Percentage of cells, 4N", "setting": "[1]; 18 h", "value": "5.4±0.8", "unit": "%"},
      {"measurement": "Percentage of cells, >4N", "setting": "[1]; 18 h", "value": "2.7±0.5", "unit": "%"},
      {"measurement": "Percentage of cells, 1N", "setting": "[1]; 24 h", "value": "1.2±0.3", "unit": "%"},
      {"measurement": "Percentage of cells, 2N, abnormal", "setting": "[1]; 24 h", "value": "1.6±0.5", "unit": "%"},
      {"measurement": "Percentage of cells, 2N, normal", "setting": "[1]; 24 h", "value": "85.6±0.5", "unit": "%"},
      {"measurement": "Percentage of cells, 3N", "setting": "[1]; 24 h", "value": "2.3±0.2", "unit": "%"},
      {"measurement": "Percentage of cells, 4N", "setting": "[1]; 24 h", "value": "6.1±0.5", "unit": "%"},
      {"measurement": "Percentage of cells, >4N", "setting": "[1]; 24 h", "value": "3.2±0.4", "unit": "%"},
      {"measurement": "IC50", "setting": "[2]", "value": 7, "unit": "µM"},
      {"measurement": "Length of cytoplasmic part of posterolateral, anterior and caudal flagella", "setting": "[3]", "value": "None of the three flagella showed any significant change"},
      {"measurement": "Length of membrane-bound portion of posterolateral and ventral flagella", "setting": "[3]; 18 h", "value": "did not induce a significant increase"},
      {"measurement": "Length of membrane-bound part of caudal flagella", "setting": "[3]; 18 h, DMSO 7.2 μm", "value": 11.1, "unit": "µm"},
      {"measurement": "Length of membrane-bound part of anterior flagella", "setting": "[3]; 18 h, DMSO 9.0 μm", "value": 11.3, "unit": "µm"},
      {"measurement": "Percentage of cells at G2/M phase", "setting": "[4]; 5 μM GW, 6 and 12 h, control 72–73%", "value": 86, "unit": "%"}
    ]},
    {"smiles": "C[C@@]1(CO)[C@H](O)CC[C@@]2(C)[C@H]1CC[C@H]1C[C@@H]3C[C@@]12CC[C@]3(O)CO", "note": "[aphidicolin]", "values": [
      {"measurement": "Percentage of G1/S-arrested cells after synchronization", "setting": "[4]; sequentially 100 nM nocodazole, then 6 μM aphidicolin 6 h, Giardia carrying pGlPLK.neo", "value": 86, "unit": "%"}
    ]},
    {"smiles": "COC(=O)Nc1nc2ccc(C(=O)c3cccs3)cc2[nH]1", "note": "[nocodazole]", "values": [
      {"measurement": "Percentage of G2/M-phase cells after synchronization", "setting": "[4]; 100 nM nocodazole, Giardia carrying pGlPLK.neo, 0.01% DMSO control 78%", "value": 91, "unit": "%"}
    ]}
  ]
}
